Data from patent US10519152B2, “Compounds and their use in treating cancer” (AstraZeneca AB, priority 2017, dated 2019).

Target: T1, Estrogen Receptor (ERα) in MCF-7 human ductal carcinoma breast cell line (Homo sapiens, UniProt P03372)
T1 construct: endogenous in cells; host or cells: MCF-7
T1 sequence (P03372 1-595): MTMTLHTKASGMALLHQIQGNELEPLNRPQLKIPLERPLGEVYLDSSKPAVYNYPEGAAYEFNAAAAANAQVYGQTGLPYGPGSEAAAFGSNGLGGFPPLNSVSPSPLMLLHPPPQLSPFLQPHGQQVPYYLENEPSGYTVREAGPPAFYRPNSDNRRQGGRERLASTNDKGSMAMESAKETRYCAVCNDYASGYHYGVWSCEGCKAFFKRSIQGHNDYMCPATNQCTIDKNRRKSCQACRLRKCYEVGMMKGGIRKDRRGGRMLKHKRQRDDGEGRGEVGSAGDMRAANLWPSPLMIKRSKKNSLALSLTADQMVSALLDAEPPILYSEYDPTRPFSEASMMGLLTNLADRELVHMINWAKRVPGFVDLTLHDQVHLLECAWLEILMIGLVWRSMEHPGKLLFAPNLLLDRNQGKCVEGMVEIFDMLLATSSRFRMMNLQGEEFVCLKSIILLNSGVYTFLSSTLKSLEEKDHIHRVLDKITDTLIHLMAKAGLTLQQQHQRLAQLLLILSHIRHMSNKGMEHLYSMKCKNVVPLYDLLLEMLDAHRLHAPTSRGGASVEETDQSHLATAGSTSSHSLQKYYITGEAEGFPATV
Experiment: MCF-7 ER degradation assay (cell based immuno-fluorescence)
Conditions: MCF-7 cells; for ER degradation ≥ 90% at 0.3 μM: ER degradation by fulvestrant at 0.3 μM is defined as 100%; for DC50: 18-22 hours incubation, 50% reduction of ERα expression, single experiment or average of two or more, read-out: MCF-7 ER degradation IC50
How it was run: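 MCF-7 human ductal carcinoma breast cells were seeded at 3.75×10^4 cells per mL (40 μL per well) in 384 well plates with phenol red free DMEM containing 2 mM L-Glutamine and 5% (v/v) Charcoal/Dextran treated foetal calf serum. After overnight culture, compounds were acoustically dispensed, incubated 18-22 hours, then cells were formaldehyde-fixed and immunostained for ERα.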

SMILES	ER degradation ≥ 90% at 0.3 μM	DC50
Cc1ncsc1-c1ccc(CNC(=O)[C@@H]2C[C@@H](O)CN2C(=O)[C@@H](NC(=O)CCCCOCCCCCOc2cc(F)c([C@@H]3c4[nH]c5ccccc5c4C[C@@H](C)N3CC(C)(C)F)c(F)c2)C(C)(C)C)cc1 [Example 113, (2S,4R)-1-((S)-2-(5-((5-(3,5-Difluoro-4-((1R,3R)-2-(2-fluoro-2-methylpropyl)-3-methyl-2,3,4,9-tetrahydro-1H-pyrido[3,4-b]indol-1-yl)phenoxy)pentyl)oxy)pentanamido)-3,3-dimethylbutanoyl)-4-hydroxy-N-(4-(4-methylthiazol-5-yl)benzyl)pyrrolidine-2-carboxamide]	••	0.9 nM
Cc1ncsc1-c1ccc(CNC(=O)[C@@H]2C[C@@H](O)CN2C(=O)[C@@H](NC(=O)CCCCCCCCCCOc2cc(F)c([C@@H]3c4[nH]c5ccccc5c4C[C@@H](C)N3CC(C)(C)F)c(F)c2)C(C)(C)C)cc1 [Example 32, (2S,4R)-1-((S)-2-(11-(3,5-Difluoro-4-((1R,3R)-2-(2-fluoro-2-methylpropyl)-3-methyl-2,3,4,9-tetrahydro-1H-pyrido[3,4-b]indol-1-yl)phenoxy)undecanamido)-3,3-dimethylbutanoyl)-4-hydroxy-N-(4-(4-methylthiazol-5-yl)benzyl)pyrrolidine-2-carboxamide]	•	13 nM
Cc1ncsc1-c1ccc(CNC(=O)[C@@H]2C[C@@H](O)CN2C(=O)[C@@H](NC(=O)CCCCCCCCCOc2cc(F)c([C@@H]3c4[nH]c5ccccc5c4C[C@@H](C)N3CC(C)(C)F)c(F)c2)C(C)(C)C)cc1 [Example 11, (2S,4R)-1-((S)-2-(10-(3,5-Difluoro-4-((1R,3R)-2-(2-fluoro-2-methylpropyl)-3-methyl-2,3,4,9-tetrahydro-1H-pyrido[3,4-b]indol-1-yl)phenoxy)decanamido)-3,3-dimethylbutanoyl)-4-hydroxy-N-(4-(4-methylthiazol-5-yl)benzyl)pyrrolidine-2-carboxamide]	••	3.2 nM
Cc1ncsc1-c1ccc(CNC(=O)[C@@H]2C[C@@H](O)CN2C(=O)[C@@H](NC(=O)COCCCCCCOc2ccc([C@@H]3c4[nH]c5ccccc5c4C[C@@H](C)N3CC(F)F)nc2)C(C)(C)C)cc1 [Example 8, (2S,4R)-1-((S)-2-(2-((6-((6-((1S,3R)-2-(2,2-Difluoroethyl)-3-methyl-2,3,4,9-tetrahydro-1H-pyrido[3,4-b]indol-1-yl)pyridin-3-yl)oxy)hexyl)oxy)acetamido)-3,3-dimethylbutanoyl)-4-hydroxy-N-(4-(4-methylthiazol-5-yl)benzyl)pyrrolidine-2-carboxamide]	••	9.4 nM
Cc1ncsc1-c1ccc(CNC(=O)[C@@H]2C[C@@H](O)CN2C(=O)[C@@H](NC(=O)CCOCCCCCCCOc2cc(F)c([C@@H]3c4[nH]c5ccccc5c4C[C@@H](C)N3CC(C)(C)F)c(F)c2)C(C)(C)C)cc1 [Example 115, (2S,4R)-1-((S)-2-(3-((7-(3,5-difluoro-4-((1R,3R)-2-(2-fluoro-2-methylpropyl)-3-methyl-2,3,4,9-tetrahydro-1H-pyrido[3,4-b]indol-1-yl)phenoxy)heptyl)oxy)propanamido)-3,3-dimethylbutanoyl)-4-hydroxy-N-(4-(4-methylthiazol-5-yl)benzyl)pyrrolidine-2-carboxamide]	••	3.4 nM
Cc1ncsc1-c1ccc(CNC(=O)[C@@H]2C[C@@H](O)CN2C(=O)[C@@H](NC(=O)C(F)(F)OCCCOCCCOc2cc(F)c([C@@H]3c4[nH]c5ccccc5c4C[C@@H](C)N3CC(C)(C)F)c(F)c2)C(C)(C)C)cc1 [Example 119, (2S,4R)-1-((S)-2-(2-(3-(3-(3,5-Difluoro-4-((1R,3R)-2-(2-fluoro-2-methylpropyl)-3-methyl-2,3,4,9-tetrahydro-1H-pyrido[3,4-b]indol-1-yl)phenoxy)propoxy)propoxy)-2,2-difluoroacetamido)-3,3-dimethylbutanoyl)-4-hydroxy-N-(4-(4-methylthiazol-5-yl)benzyl)pyrrolidine-2-carboxamide]	•	1.4 nM
Cc1ncsc1-c1ccc([C@H](C)NC(=O)[C@@H]2C[C@@H](O)CN2C(=O)[C@@H](NC(=O)COCCCCCOCCOc2cc(F)c([C@@H]3c4[nH]c5ccccc5c4C[C@@H](C)N3CC(C)(C)F)c(F)c2)C(C)(C)C)cc1 [Example 157, (2S,4R)-1-((S)-2-(2-((5-(2-(3,5-Difluoro-4-((1R,3R)-2-(2-fluoro-2-methylpropyl)-3-methyl-2,3,4,9-tetrahydro-1H-pyrido[3,4-b]indol-1-yl)phenoxy)ethoxy)pentyl)oxy)acetamido)-3,3-dimethylbutanoyl)-4-hydroxy-N—((S)-1-(4-(4-methylthiazol-5-yl)phenyl)ethyl)pyrrolidine-2-carboxamide]	••	0.4 nM
Cc1ncsc1-c1ccc(CNC(=O)[C@@H]2C[C@@H](O)CN2C(=O)[C@@H](NC(=O)COCCCCC(=O)N(C)CCOc2cc(F)c([C@@H]3c4[nH]c5ccccc5c4C[C@@H](C)N3CC(C)(C)F)c(F)c2)C(C)(C)C)cc1 [Example 143, (2S,4R)-1-((S)-2-(2-((5-((2-(3,5-Difluoro-4-((1R,3R)-2-(2-fluoro-2-methylpropyl)-3-methyl-2,3,4,9-tetrahydro-1H-pyrido[3,4-b]indol-1-yl)phenoxy)ethyl)(methyl)amino)-5-oxopentyl)oxy)acetamido)-3,3-dimethylbutanoyl)-4-hydroxy-N-(4-(4-methylthiazol-5-yl)benzyl)pyrrolidine-2-carboxamide]	••	0.2 nM
Cc1ncsc1-c1ccc(CNC(=O)[C@@H]2C[C@@H](O)CN2C(=O)[C@@H](NC(=O)COCCOCCCCCOc2cc(F)c([C@@H]3c4[nH]c5ccccc5c4C[C@@H](C)N3CC(F)F)c(F)c2)C(C)(C)C)cc1 [Example 167, (2S,4R)-1-((S)-2-(2-(2-((5-(4-((1R,3R)-2-(2,2-Difluoroethyl)-3-methyl-2,3,4,9-tetrahydro-1H-pyrido[3,4-b]indol-1-yl)-3,5-difluorophenoxy)pentyl)oxy)ethoxy)acetamido)-3,3-dimethylbutanoyl)-4-hydroxy-N-(4-(4-methylthiazol-5-yl)benzyl)pyrrolidine-2-carboxamide]	••	0.6 nM
Cc1ncsc1-c1ccc([C@H](C)NC(=O)[C@@H]2C[C@@H](O)CN2C(=O)[C@@H](NC(=O)C(F)(F)OCCCOCCCOc2cc(F)c([C@@H]3c4[nH]c5ccccc5c4C[C@@H](C)N3CC(C)(C)F)c(F)c2)C(C)(C)C)cc1 [Example 120, (2S,4R)-1-((S)-2-(2-(3-(3-(3,5-Difluoro-4-((1R,3R)-2-(2-fluoro-2-methylpropyl)-3-methyl-2,3,4,9-tetrahydro-1H-pyrido[3,4-b]indol-1-yl)phenoxy)propoxy)propoxy)-2,2-difluoroacetamido)-3,3-dimethylbutanoyl)-4-hydroxy-N—((S)-1-(4-(4-methylthiazol-5-yl)phenyl)ethyl)pyrrolidine-2-carboxamide]	••	1.6 nM
Cc1ncsc1-c1ccc(CNC(=O)[C@@H]2C[C@@H](O)CN2C(=O)[C@@H](NC(=O)CNCCC(F)(F)CCOc2cc(F)c([C@@H]3c4[nH]c5ccccc5c4C[C@@H](C)N3CC(C)(C)F)c(F)c2)C(C)(C)C)cc1 [Example 131, (2S,4R)-1-((S)-2-(2-((5-(3,5-Difluoro-4-((1R,3R)-2-(2-fluoro-2-methylpropyl)-3-methyl-2,3,4,9-tetrahydro-1H-pyrido[3,4-b]indol-1-yl)phenoxy)-3,3-difluoropentyl)amino)acetamido)-3,3-dimethylbutanoyl)-4-hydroxy-N-(4-(4-methylthiazol-5-yl)benzyl)pyrrolidine-2-carboxamide]	•	0.8 nM
Cc1ncsc1-c1ccc([C@H](C)NC(=O)[C@@H]2C[C@@H](O)CN2C(=O)[C@@H](NC(=O)COCCc2ccc(COc3cc(F)c([C@@H]4c5[nH]c6ccccc6c5C[C@@H](C)N4CC(C)(C)F)c(F)c3)nc2)C(C)(C)C)cc1 [Example 159, (2S,4R)-1-((S)-2-(2-(2-(6-((3,5-Difluoro-4-((1R,3R)-2-(2-fluoro-2-methylpropyl)-3-methyl-2,3,4,9-tetrahydro-1H-pyrido[3,4-b]indol-1-yl)phenoxy)methyl)pyridin-3-yl)ethoxy)acetamido)-3,3-dimethylbutanoyl)-4-hydroxy-N—((S)-1-(4-(4-methylthiazol-5-yl)phenyl)ethyl)pyrrolidine-2-carboxamide]	••	0.5 nM
